Results from patent US20230114728A1 (Venatorx Pharmaceuticals, Inc., priority 2019, published 2023).
≈ marks a conversion by molar mass, not a printed value. Like-named read-outs stand apart in the source and are kept apart here.

Tests used:
Format in all cases: cell-based
E. coli AG100A = experiment: Broth microdilution MIC in CAMHB; details: Escherichia coli, read-out: Minimum Inhibitory Concentration, E. coli AG100A
Summary of the method: (§1)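 CLSI broth microdilution in CAMHB: 2-fold compound dilutions inoculated at 2-8×10^5 CFU/mL from 3-5 h log-phase cultures. Incubated at 37 °C for 16-20 h (Enterobacteriaceae, Pseudomonas); MIC read visually as lowest concentration without growth. Strains include hyper-permeable and efflux-deficient mutants.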

E. coli D22 = experiment: Broth microdilution MIC in CAMHB; details: Escherichia coli; E. coli D22 (hyper-permeable); MHB; read-out: Minimum Inhibitory Concentration, E. coli D22
Summary of the method: as §1

[1] = tested on: K. pneumoniae 848844 producing SHV-11 and KPC-2; experiment: Broth microdilution MIC in CAMHB; details: Klebsiella pneumoniae, read-out: Minimum Inhibitory Concentration, K. pneumoniae 848844
Summary of the method: as §1

[2] = tested on: K. pneumoniae SI-117 producing VIM-1; experiment: Broth microdilution MIC in CAMHB; details: Klebsiella pneumoniae, read-out: Minimum Inhibitory Concentration, K. pneumoniae SI-117
Summary of the method: as §1

[3] = tested on: P. aeruginosa (ΔmexAB-oprM); experiment: Broth microdilution MIC in CAMHB; details: Pseudomonas aeruginosa, read-out: Minimum Inhibitory Concentration, P. aeruginosa ΔmexAB-OprM
Summary of the method: as §1

[4] = tested on: N. gonorrhoeae ATCC 49226; experiment: Liquid broth MIC in Fastidious broth; details: Neisseria gonorrhoeae, ATCC49226, Fastidious broth
Summary of the method: (§2)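 Colonies were swabbed from chocolate agar after 24 h growth and standardised by optical density at 600 nm. Compounds were serially diluted twofold in Fastidious broth, and bacteria added to give 5×10^5 CFU/mL. After about 24 h at 36 °C in 5% CO2, the lowest concentration allowing under 10% growth was taken as MIC.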

N. gonorrhoeae FA1090 = experiment: Liquid broth MIC in Fastidious broth; details: Neisseria gonorrhoeae, Fastidious broth
Summary of the method: as §2

N. gonorrhoeae H041 = experiment: Liquid broth MIC in Fastidious broth; details: Neisseria gonorrhoeae
Summary of the method: (§3)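 Broth microdilution in Fastidious broth with 2-fold compound series; inoculum from 24 h chocolate agar colonies, 5×10^5 CFU/mL start. Incubated ~24 hours at 36° C, 5% CO2. MIC read visually as lowest concentration giving <10% growth versus full-growth wells; strains carry mosaic PBP2.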

N. gonorrhoeae WHO G = experiment: Liquid broth MIC in Fastidious broth; details: Neisseria gonorrhoeae, Fastidious broth
Summary of the method: as §2

N. gonorrhoeae WHO K = experiment: Liquid broth MIC in Fastidious broth; details: Neisseria gonorrhoeae
Summary of the method: as §3

N. gonorrhoeae WHO L = experiment: Liquid broth MIC in Fastidious broth; details: Neisseria gonorrhoeae, Fastidious broth
Summary of the method: as §2

N. gonorrhoeae WHO Q = experiment: Liquid broth MIC in Fastidious broth; details: Neisseria gonorrhoeae
Summary of the method: as §3

N. gonorrhoeae WHO Z = experiment: Liquid broth MIC in Fastidious broth; details: Neisseria gonorrhoeae
Summary of the method: as §3

[5] = N. gonorrhoeae strain ATCC 49226, read-out: Minimum Inhibitory Concentration, N. gonorrhoeae ATCC 49226
[6] = N. gonorrhoeae strain FA1090, read-out: Minimum Inhibitory Concentration, N. gonorrhoeae FA1090
[7] = H041, read-out: Minimum Inhibitory Concentration, N. gonorrhoeae H041
[8] = N. gonorrhoeae strain WHO G, read-out: Minimum Inhibitory Concentration, N. gonorrhoeae WHO G
[9] = read-out: Minimum Inhibitory Concentration, N. gonorrhoeae WHO K
[10] = N. gonorrhoeae strain WHO L, read-out: Minimum Inhibitory Concentration, N. gonorrhoeae WHO L
[11] = read-out: Minimum Inhibitory Concentration, N. gonorrhoeae WHO Q
[12] = read-out: Minimum Inhibitory Concentration, N. gonorrhoeae WHO Z

| Structure (SMILES) | MIC (E. coli AG100A) | MIC (E. coli D22) | MIC [1] | MIC [2] | MIC [3] | MIC [4, 5] | MIC (N. gonorrhoeae FA1090; [6]) | MIC (N. gonorrhoeae H041; [7]) | MIC (N. gonorrhoeae WHO G; [8]) | MIC (N. gonorrhoeae WHO K; [9]) | MIC (N. gonorrhoeae WHO L; [10]) | MIC (N. gonorrhoeae WHO Q; [11]) | MIC (N. gonorrhoeae WHO Z; [12]) | other results |
| --- | --- | --- | --- | --- | --- | --- | --- | --- | --- | --- | --- | --- | --- | --- |
| CCN1CCN(C(=O)NC(C(=O)N[C@H]2Cc3cccc(C(=O)O)c3OB2O)c2cc(C#N)c(O)cc2F)C(=O)C1=O (stereo partly drawn) [Example 209, (3R)-3-(2-(5-cyano-2-fluoro-4-hydroxyphenyl)-2-(4-ethyl-2,3-dioxopiperazine-1-carboxamido)acetamido)-2-hydroxy-3,4-dihydro-2H-benzo[e][1,2]oxaborinine-8-carboxylic acid] | 2 to 4 µg/mL (≈ 3.53 to 7.05 µM) | 2 to 4 µg/mL (≈ 3.53 to 7.05 µM) | > 128 µg/mL | > 128 µg/mL | 8 to 16 µg/mL (≈ 14.1 to 28.2 µM) | – | – | – | – | – | – | – | – | MIC ([4]; N. gonorrhoeae ATCC 49226, read-out: Minimum Inhibitory Concentration, ATCC 49226): 4 to 8 µg/mL (≈ 7.05 to 14.1 µM); MIC (N. gonorrhoeae FA1090; N. gonorrhoeae FA1090, read-out: Minimum Inhibitory Concentration, FA1090): 0.25 to 0.5 µg/mL (≈ 0.441 to 0.881 µM); MIC (N. gonorrhoeae H041; H041, read-out: Minimum Inhibitory Concentration, H041): 16 to 32 µg/mL (≈ 28.2 to 56.4 µM); MIC (N. gonorrhoeae WHO G; N. gonorrhoeae WHO G, read-out: Minimum Inhibitory Concentration, WHO G): 4 to 8 µg/mL (≈ 7.05 to 14.1 µM); MIC (N. gonorrhoeae WHO K; read-out: Minimum Inhibitory Concentration, WHO K): 16 to 32 µg/mL (≈ 28.2 to 56.4 µM); MIC (N. gonorrhoeae WHO L; N. gonorrhoeae WHO L, read-out: Minimum Inhibitory Concentration, WHO L): 16 to 32 µg/mL (≈ 28.2 to 56.4 µM); MIC (N. gonorrhoeae WHO Q; read-out: Minimum Inhibitory Concentration, WHO Q): 16 to 32 µg/mL (≈ 28.2 to 56.4 µM); MIC (N. gonorrhoeae WHO Z; read-out: Minimum Inhibitory Concentration, WHO Z): 4 to 8 µg/mL (≈ 7.05 to 14.1 µM) |
| CCN1CCN(C(=O)NC(C(=O)N[C@H]2Cc3cccc(C(=O)O)c3OB2O)c2ccc(C(=O)O)c(O)c2)C(=O)C1=O (stereo partly drawn) [Example 196, (3R)-3-(2-(4-carboxy-3-hydroxyphenyl)-2-(4-ethyl-2,3-dioxopiperazine-1-carboxamido)acetamido)-2-hydroxy-3,4-dihydro-2H-benzo[e][1,2]oxaborinine-8-carboxylic acid] | 2 to 4 µg/mL (≈ 3.52 to 7.04 µM) | 0.5 to 1 µg/mL (≈ 0.88 to 1.76 µM) | 32 to 64 µg/mL (≈ 56.3 to 113 µM) | 32 to 64 µg/mL (≈ 56.3 to 113 µM) | 2 to 4 µg/mL (≈ 3.52 to 7.04 µM) | 4 to 8 µg/mL (≈ 7.04 to 14.1 µM) | 0.25 to 0.5 µg/mL (≈ 0.44 to 0.88 µM) | 16 to 32 µg/mL (≈ 28.2 to 56.3 µM) | 1 to 2 µg/mL (≈ 1.76 to 3.52 µM) | 4 to 8 µg/mL (≈ 7.04 to 14.1 µM) | 16 to 32 µg/mL (≈ 28.2 to 56.3 µM) | 4 to 8 µg/mL (≈ 7.04 to 14.1 µM) | 4 to 8 µg/mL (≈ 7.04 to 14.1 µM) | – |
| CS(=O)(=O)N1CCN(C(=O)N[C@@H](C(=O)N[C@H]2Cc3ccc(F)c(C(=O)O)c3OB2O)c2cc(F)c(O)c(O)c2Cl)C1=O (single isomer, unassigned) [Example 189] | 2 to 4 µg/mL (≈ 3.16 to 6.32 µM) | 0.5 to 1 µg/mL (≈ 0.79 to 1.58 µM) | 2 to 4 µg/mL (≈ 3.16 to 6.32 µM) | 8 to 16 µg/mL (≈ 12.6 to 25.3 µM) | 8 to 16 µg/mL (≈ 12.6 to 25.3 µM) | 16 to 32 µg/mL (≈ 25.3 to 50.6 µM) | 4 to 8 µg/mL (≈ 6.32 to 12.6 µM) | > 64 µg/mL | 16 to 32 µg/mL (≈ 25.3 to 50.6 µM) | 16 to 32 µg/mL (≈ 25.3 to 50.6 µM) | > 64 µg/mL | 16 to 32 µg/mL (≈ 25.3 to 50.6 µM) | 16 to 32 µg/mL (≈ 25.3 to 50.6 µM) | – |
| CCN1CCN(C(=O)NC(C(=O)N[C@H]2Cc3cccc(C(=O)O)c3OB2O)c2ccc(O)c(Cl)c2F)C(=O)C1=O (stereo partly drawn) [Example 185, (3R)-3-(2-(3-chloro-2-fluoro-4-hydroxyphenyl)-2-(4-ethyl-2,3-dioxopiperazine-1-carboxamido)acetamido)-2-hydroxy-3,4-dihydro-2H-benzo[e][1,2]oxaborinine-8-carboxylic acid] | 2 to 4 µg/mL (≈ 3.47 to 6.94 µM) | 2 to 4 µg/mL (≈ 3.47 to 6.94 µM) | > 128 µg/mL | 32 to 64 µg/mL (≈ 55.5 to 111 µM) | 2 to 4 µg/mL (≈ 3.47 to 6.94 µM) | 4 to 8 µg/mL (≈ 6.94 to 13.9 µM) | < 0.125 µg/mL | 16 to 32 µg/mL (≈ 27.7 to 55.5 µM) | 4 to 8 µg/mL (≈ 6.94 to 13.9 µM) | 16 to 32 µg/mL (≈ 27.7 to 55.5 µM) | 16 to 32 µg/mL (≈ 27.7 to 55.5 µM) | 16 to 32 µg/mL (≈ 27.7 to 55.5 µM) | 4 to 8 µg/mL (≈ 6.94 to 13.9 µM) | – |
| CCN1CCN(C(=O)NC(C(=O)N[C@H]2Cc3cccc(C(=O)O)c3OB2O)c2c(F)cc(NC(C)=O)cc2F)C(=O)C1=O (stereo partly drawn) [Example 188, (3R)-3-(2-(4-acetamido-2,6-difluorophenyl)-2-(4-ethyl-2,3-dioxopiperazine-1-carboxamido)acetamido)-2-hydroxy-3,4-dihydro-2H-benzo[e][1,2]oxaborinine-8-carboxylic acid] | 2 to 4 µg/mL (≈ 3.33 to 6.65 µM) | 2 to 4 µg/mL (≈ 3.33 to 6.65 µM) | > 128 µg/mL | > 128 µg/mL | 32 to 64 µg/mL (≈ 53.2 to 106 µM) | 4 to 8 µg/mL (≈ 6.65 to 13.3 µM) | 0.25 to 0.5 µg/mL (≈ 0.416 to 0.831 µM) | > 64 µg/mL | 4 to 8 µg/mL (≈ 6.65 to 13.3 µM) | > 64 µg/mL | > 64 µg/mL | 16 to 32 µg/mL (≈ 26.6 to 53.2 µM) | 16 to 32 µg/mL (≈ 26.6 to 53.2 µM) | – |
